Measured values as given in patent publication US20050159365A1, “Hepatits c virus inhibitor comprising alpha-glycosylceramide as the active ingredient” (Kirin Beer Kabushiki Kaisha, priority 2002, published 2005).
Read-outs that look alike come from different tables or passages of the source.

What was measured:
Format in all cases: in vivo
[1] = Serum KRN7000 levels by LC-MS/MS after intravenous administration to HCV-infected chimpanzees; conditions: for Concentration in blood (serum KRN7000 level): before administration; for concentration at 15 min / concentration at 6 h: chimpanzee, serum, iv, 10 μg/kg, read-out: Concentration in blood (serum KRN7000 level); for concentration at 15 min: 15 minutes later; for concentration at 6 h: 6 hours later
Description: (§1) Chimpanzees are the only test animals that can be persistently infected with hepatitis C viruses. Thus, 2 chimpanzees were selected as test animals for this experiment from the chimpanzee-dedicated facility (Kumamoto Primates Park, Sanwa Kagaku Kenkyusho Colo., Ltd.) where chimpanzees including hepatitis C virus carriers have been artificially bred and propagated over a long period of time. This experiment was examined and approved by the Experiment Review Board in advance in terms of ethics and test contents, and pain inflicted on chimpanzees was eliminated as much as possible during the experiment. Two chimpanzees employed in the experiment are hereafter referred to as Animal No. C33 (the duration of persistent infection with HCV (1a): 22 years) and Animal No. C54 (the duration of persistent infection with HCV (1b): 20 years), respectively.
After an acclimation period of approximately 1 month, KRN7000 was intravenously administered two times to animals at the rate of 10 μg/kg at the interval of 28 days (day 0 and day 28). In order to obtain samples for verifying the responses of chimpanzees to KRN7000 and efficacy of KRN7000 on chronic HCV infections, blood drawing was carried out before and after each administration. The total leukocyte count was measured using an automated blood cell counter Sysmex K4500 (Sysmex Corporation). The leukocyte percentage was determined by coating whole blood onto a fat-free slide glass, immobilizing it thereon, staining with Diff-Quick (International Reagents Corp.), and microscopically examining 200 leukocytes. Neutrophil and lymphocyte counts were calculated by multiplying the obtained values with the total leukocyte count. The NKT cell percentage in the T cells was determined by: staining the whole blood with an anti-human TCR Vα24 antibody (Beckman Coulter), KRN7000 (α-GalCer)-bound human CD1d tetramer, and an anti-human CD3 antibody (Becton Dickinson Japan) that are labeled with different fluorescent dyes; lysing the stained whole blood with the FACS Lysing Solution (Becton Dickinson Japan); immobilizing thereof; and then determining the NKT cell ratio using the FACSCalibur (Becton Dickinson Japan). Cells that had responded to all of the anti-human TCR Vα24 antibody, the tetramer, and the anti-human CD3 antibody were determined to be the NKT cells of the chimpanzees. The activities of alanine aminotransferase (ALT), aspartate aminotransferase (AST), and lactate dehydrogenase (LDH) in serums were assayed using an automatic analyzer. The serum HCV-RNA levels were assayed by RT-PCR using the AMPLICOR® GT HCV monitor (Roche Diagnostics) and branched DNA (bDNA) probe assay using the Quantiplex HCV-RNA 2 (Bayer Corporation). The serum KRN7000 levels were assayed by liquid chromatography and tandem mass spectrometry (LC-MS/MS).

hepatitis C virus = assay: Serum HCV-RNA levels (RT-PCR, bDNA probe assay) in chimpanzees persistently infected with hepatitis C virus
Description: as §1
(§2) After an acclimation period of approximately 1 month, KRN7000 was intravenously administered two times to animals at the rate of 10 μg/kg at the interval of 28 days (day 0 and day 28). […] The total leukocyte count was measured using an automated blood cell counter Sysmex K4500 (Sysmex Corporation). The leukocyte percentage was determined by coating whole blood onto a fat-free slide glass, immobilizing it thereon, staining with Diff-Quick (International Reagents Corp.), and microscopically examining 200 leukocytes. Neutrophil and lymphocyte counts were calculated by multiplying the obtained values with the total leukocyte count. The NKT cell percentage in the T cells was determined by: staining the whole blood with an anti-human TCR Vα24 antibody (Beckman Coulter), KRN7000 (α-GalCer)-bound human CD1d tetramer, and an anti-human CD3 antibody (Becton Dickinson Japan) that are labeled with different fluorescent dyes; lysing the stained whole blood with the FACS Lysing Solution (Becton Dickinson Japan); immobilizing thereof; and then determining the NKT cell ratio using the FACSCalibur (Becton Dickinson Japan). […]

leukocytes = assay: Total leukocyte, neutrophil and lymphocyte counts in blood of HCV-infected chimpanzees; conditions: 10 μg/kg i.v.
Description: as §1, §2

NKT cells = assay: NKT cell percentage in the T cells by FACS in HCV-infected chimpanzees
Description: as §1, with “Two chimpanzees employed in the experiment are hereafter referred to as Animal No. C33 (the duration of persistent infection with HCV (1a): 22 years) and Animal No. C54 (the duration of persistent infection with HCV (1b): 20 years), respectively.” left out
After an acclimation period of approximately 1 month, KRN7000 was intravenously administered two times to animals at the rate of 10 μg/kg at the interval of 28 days (day 0 and day 28). […] The total leukocyte count was measured using an automated blood cell counter Sysmex K4500 (Sysmex Corporation). The leukocyte percentage was determined by coating whole blood onto a fat-free slide glass, immobilizing it thereon, staining with Diff-Quick (International Reagents Corp.), and microscopically examining 200 leukocytes. Neutrophil and lymphocyte counts were calculated by multiplying the obtained values with the total leukocyte count. […]

[2] = Serum ALT, AST and LDH activities in HCV-infected chimpanzees; conditions: both chimpanzees, both stages; peaks 1 day or 3 days after administration, then returned to levels before administration
Description: as §1, §2

[3] = Animal C33, first administration (10 μg/kg i.v., day 0)
[4] = Animal C33, second administration (10 μg/kg i.v., day 28)
[5] = Animal C54, first administration (10 μg/kg i.v., day 0)
[6] = Animal C54, second administration (10 μg/kg i.v., day 28)

CCCCCCCCCCCCCCCCCCCCCCCCCC(=O)N[C@@H](CO[C@H]1O[C@H](CO)[C@H](O)[C@H](O)[C@H]1O)[C@H](O)[C@H](O)CCCCCCCCCCCCCC [KRN7000, (2S,3S,4R)-1-(α-D-galactopyranosyloxy)-2-hexacosanoylamino-3,4-octadecanediol]
Concentration in blood (serum KRN7000 level) [1, 3]: <10 ng/mL | Concentration in blood (serum KRN7000 level) [1, 4]: <10 ng/mL | Concentration in blood (serum KRN7000 level) [1, 5]: <10 ng/mL | Concentration in blood (serum KRN7000 level) [1, 6]: <10 ng/mL | Time after administration at which maximum serum levels of KRN7000 were detected ([1]; both chimpanzees, both stages, 10 μg/kg i.v.): 15 min | concentration at 15 min [1, 3]: 89 ng/mL | concentration at 6 h [1, 3]: 38 ng/mL | concentration at 15 min [1, 4]: 97 ng/mL | concentration at 6 h [1, 4]: 58 ng/mL | concentration at 15 min [1, 5]: 129 ng/mL | concentration at 6 h [1, 5]: 42 ng/mL | concentration at 15 min [1, 6]: 141 ng/mL | concentration at 6 h [1, 6]: 77 ng/mL | Effect on chimpanzees infected with chronic HCV (overall conclusion) (hepatitis C virus; 10 μg/kg i.v. two times at interval of 28 days): anti-HCV effects | HCV-RNA levels, second administration (day 28) compared with initial administration (day 0) (hepatitis C virus; 10 μg/kg i.v., day 0 and day 28): continuously decreased | Serum HCV-RNA levels (hepatitis C virus; both chimpanzees (HCV 1a, 1b), 1 day or 3 days after administration, both stages, 10 μg/kg i.v., RT-PCR or bDNA): apparent decreases | Lymphocyte count (leukocytes; 6 hours after the administration, some exceptions): decreased | Neutrophil count (leukocytes; both chimpanzees, both stages of administration, 6 hours later): increased | Total leukocyte count (leukocytes; in many cases, after administration): transiently increased | NKT cells, course after disappearance (NKT cells; Test Animal No. C54, after the administration): gradually showed a tendency to recover | NKT cells (ratio of NKT cell count to T cell count) (NKT cells; day following both administrations, both chimpanzees, 10 μg/kg i.v.): not detected | Serum ALT activity [2]: transiently and mildly elevated | Serum AST activity [2]: transiently and mildly elevated | Serum LDH activity [2]: transiently and mildly elevated
